Measurements from PubChem BioAssay AID1963972 (Molecular Pharmacology Branch, DTP, NCI, 2024).

System: 945468-187-T-J2-PDC spheroids viability
Test: Anticancer human tumor 945468-187-T-J2-PDC patient-derived rectal carcinoma cell line growth inhibition [PI3K]
Conditions: spheroids with HUVEC and MSC; for IC50: curve of first compound; for viability, T/C: stronger effect = lower value
Procedure, shortened: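 Agents were dosed from a top concentration near clinical Cmax (otherwise 10 microM) in half-log decrements, alone or combined with PI3K inhibitors. The spheroids contain tumor cells plus endothelial (HUVEC) and MSC stroma; viability is measured.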

[1] = second compound 0.0316 µM, first compound 0.0316 µM
[2] = second compound 0.0316 µM, first compound 0.1 µM
[3] = second compound 0.1 µM, first compound 0.0316 µM
[4] = second compound 0.1 µM, first compound 0.1 µM
[5] = second compound 0.316 µM, first compound 0.0316 µM
[6] = second compound 0.316 µM, first compound 0.1 µM
[7] = second compound 1 µM, first compound 0.0316 µM
[8] = second compound 1 µM, first compound 0.1 µM
[9] = second compound 3.16 µM, first compound 0.0316 µM
[10] = second compound 3.16 µM, first compound 0.1 µM
[11] = second compound 10 µM, first compound 0.0316 µM
[12] = second compound 10 µM, first compound 0.1 µM
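Note: spheroids exposed to compounds for seven days before reading.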

SMILES: CC(C)NCC(C(=O)N1CCN(c2ncnc3c2C(C)CC3O)CC1)c1ccc(Cl)cc1 (centres undefined) + CC(Nc1ncnc2nc[nH]c12)c1cc2cccc(Cl)c2c(=O)n1-c1ccccc1
- IC50 (second compound 0.0316 µM): > 10 µM
- IC50 (second compound 0.1 µM): > 10 µM
- IC50 (second compound 0.316 µM): > 10 µM
- IC50 (second compound 1 µM): > 10 µM
- IC50 (second compound 3.16 µM): > 10 µM
- IC50 (second compound 10 µM): > 10 µM
- viability, T/C [1]: 88.1%
- viability, T/C [2]: 82%
- viability, T/C (second compound 0.0316 µM, first compound 0.316 µM): 111%
- viability, T/C (second compound 0.0316 µM, first compound 1 µM): 74.2%
- viability, T/C (second compound 0.0316 µM, first compound 3.16 µM): 116%
- viability, T/C (second compound 0.0316 µM, first compound 10 µM): 77.2%
- viability, T/C [3]: 97.1%
- viability, T/C [4]: 93.1%
- viability, T/C (second compound 0.1 µM, first compound 0.316 µM): 78%
- viability, T/C (second compound 0.1 µM, first compound 1 µM): 84%
- viability, T/C (second compound 0.1 µM, first compound 3.16 µM): 89.7%
- viability, T/C (second compound 0.1 µM, first compound 10 µM): 77.7%
- viability, T/C [5]: 86.4%
- viability, T/C [6]: 76.6%
- viability, T/C (second compound 0.316 µM, first compound 0.316 µM): 107%
- viability, T/C (second compound 0.316 µM, first compound 1 µM): 97.5%
- viability, T/C (second compound 0.316 µM, first compound 3.16 µM): 100%
- viability, T/C (second compound 0.316 µM, first compound 10 µM): 76.9%
- viability, T/C [7]: 69.1%
- viability, T/C [8]: 97.6%
- viability, T/C (second compound 1 µM, first compound 0.316 µM): 86.4%
- viability, T/C (second compound 1 µM, first compound 1 µM): 106%
- viability, T/C (second compound 1 µM, first compound 3.16 µM): 92.6%
- viability, T/C (second compound 1 µM, first compound 10 µM): 67.9%
- viability, T/C [9]: 80.8%
- viability, T/C [10]: 75.3%
- viability, T/C (second compound 3.16 µM, first compound 0.316 µM): 77%
- viability, T/C (second compound 3.16 µM, first compound 1 µM): 116%
- viability, T/C (second compound 3.16 µM, first compound 3.16 µM): 84.7%
- viability, T/C (second compound 3.16 µM, first compound 10 µM): 76.9%
- viability, T/C [11]: 93.7%
- viability, T/C [12]: 96.1%
- viability, T/C (second compound 10 µM, first compound 0.316 µM): 86.2%
- viability, T/C (second compound 10 µM, first compound 1 µM): 103%
- viability, T/C (second compound 10 µM, first compound 3.16 µM): 90.4%
- viability, T/C (second compound 10 µM, first compound 10 µM): 81%

SMILES: Cn1ncnc1[C@H]1c2n[nH]c(=O)c3cc(F)cc(c23)N[C@@H]1c1ccc(F)cc1 + CC(Nc1ncnc2nc[nH]c12)c1cc2cccc(Cl)c2c(=O)n1-c1ccccc1
- IC50 (second compound 0.0316 µM): > 0.1 µM
- IC50 (second compound 0.1 µM): > 0.1 µM
- IC50 (second compound 0.316 µM): > 0.1 µM
- IC50 (second compound 1 µM): > 0.1 µM
- IC50 (second compound 3.16 µM): > 0.1 µM
- IC50 (second compound 10 µM): > 0.1 µM
- viability, T/C (second compound 0.0316 µM, first compound 0.000316 µM): 100%
- viability, T/C (second compound 0.0316 µM, first compound 0.001 µM): 106%
- viability, T/C (second compound 0.0316 µM, first compound 0.00316 µM): 85.3%
- viability, T/C (second compound 0.0316 µM, first compound 0.01 µM): 93.1%
- viability, T/C [1]: 87.3%
- viability, T/C [2]: 89.8%
- viability, T/C (second compound 0.1 µM, first compound 0.000316 µM): 89%
- viability, T/C (second compound 0.1 µM, first compound 0.001 µM): 90.3%
- viability, T/C (second compound 0.1 µM, first compound 0.00316 µM): 88%
- viability, T/C (second compound 0.1 µM, first compound 0.01 µM): 88%
- viability, T/C [3]: 103%
- viability, T/C [4]: 109%
- viability, T/C (second compound 0.316 µM, first compound 0.000316 µM): 115%
- viability, T/C (second compound 0.316 µM, first compound 0.001 µM): 102%
- viability, T/C (second compound 0.316 µM, first compound 0.00316 µM): 130%
- viability, T/C (second compound 0.316 µM, first compound 0.01 µM): 97.5%
- viability, T/C [5]: 121%
- viability, T/C [6]: 96.8%
- viability, T/C (second compound 1 µM, first compound 0.000316 µM): 88.8%
- viability, T/C (second compound 1 µM, first compound 0.001 µM): 100%
- viability, T/C (second compound 1 µM, first compound 0.00316 µM): 84.7%
- viability, T/C (second compound 1 µM, first compound 0.01 µM): 108%
- viability, T/C [7]: 103%
- viability, T/C [8]: 110%
- viability, T/C (second compound 3.16 µM, first compound 0.000316 µM): 120%
- viability, T/C (second compound 3.16 µM, first compound 0.001 µM): 108%
- viability, T/C (second compound 3.16 µM, first compound 0.00316 µM): 116%
- viability, T/C (second compound 3.16 µM, first compound 0.01 µM): 128%
- viability, T/C [9]: 99.4%
- viability, T/C [10]: 111%
- viability, T/C (second compound 10 µM, first compound 0.000316 µM): 117%
- viability, T/C (second compound 10 µM, first compound 0.001 µM): 103%
- viability, T/C (second compound 10 µM, first compound 0.00316 µM): 112%
- viability, T/C (second compound 10 µM, first compound 0.01 µM): 105%
- viability, T/C [11]: 102%
- viability, T/C [12]: 109%
